# Assay: Measurement of LogP values by HPLC on reversed phase columns (EEC directive 79/831 Annex V.A8)
# Assay type: physicochemical
# Settings: acidic range, 0.1% formic acid in water and acetonitrile as eluent
row,Structure (SMILES),logP (HCOOH)[a]
1,O=C(NCC(F)(F)c1ccc(-c2ccc(OC(F)(F)F)cc2)cc1Cl)c1ccccc1C(F)(F)F [Example 39],4.67
2,O=C(NCC(F)(F)c1ccc(-c2ccc(C(F)F)cc2)cc1Cl)c1ccccc1C(F)(F)F [Example 40],3.99
3,O=C(NCC(F)(F)c1ccc(-c2ccc(C(F)(F)F)cc2)cc1Cl)c1ccccc1C(F)(F)F [Example 41],4.56
4,O=C(NCC(F)(F)c1ccc(-c2cccc(OC(F)(F)F)c2)cc1Cl)c1ccccc1C(F)(F)F [Example 42],4.61
5,O=C(NCC(F)(F)c1ccc(-c2ccc(S(=O)(=O)C(F)(F)F)cc2)cc1Cl)c1ccccc1C(F)(F)F [Example 45],4.32
6,N#Cc1ccc(-c2cc(F)c(C(F)(F)CNC(=O)c3ccccc3C(F)(F)F)c(F)c2)cc1 [Example 46],3.53
7,O=C(NCC(F)(F)c1c(F)cc(-c2ccc(OC(F)(F)F)cc2)cc1F)c1ccccc1C(F)(F)F [Example 48],4.56
8,O=C(NCC(F)(F)c1ccc(-c2ccc([S+]([O-])C(F)(F)F)cc2)cc1Cl)c1ccccc1C(F)(F)F (stereo not shown) [Example 56],3.87
9,O=C(NCC(F)(F)c1ccc(-c2ccc(F)cc2)cc1Cl)c1ccccc1I [Example 57],4.17
10,O=C(NCC(F)(F)c1ccc(-c2ccc(F)cc2)cc1Cl)c1ccccc1Br [Example 58],4.05
11,O=C(NCC(F)(F)c1ccc(-c2ccc(F)cc2)cc1Cl)c1ccccc1Cl [Example 59],4.0
12,O=C(NCC(F)(F)c1ccc(-c2cc(F)c(OC(F)F)c(F)c2)cc1Cl)c1ccccc1C(F)(F)F [Example 66],4.20
13,O=C(NCC(F)(F)c1ccc(-c2cccc(C(F)(F)F)c2)cc1Cl)c1ccccc1C(F)(F)F [Example 67],4.55
14,O=C(NCC(F)(F)c1ccc(-c2ccc3c(c2)OC(F)(F)O3)cc1Cl)c1ccccc1C(F)(F)F [Example 71],4.57
15,N#Cc1cc(-c2ccc(OC(F)(F)F)cc2)ccc1C(F)(F)CNC(=O)c1ccccc1C(F)(F)F [Example 72],4.23
16,N#Cc1ccc(-c2ccc(C(F)(F)CNC(=O)c3ccccc3C(F)(F)F)c(C#N)c2)cc1 [Example 73],1.33
17,O=C(NCC(F)(F)c1ccc(-c2ccc(N3CCOCC3)cc2)cc1Cl)c1ccccc1C(F)(F)F [Example 75],3.83
18,Cc1cc(-c2ccc(OC(F)(F)F)cc2)ccc1C(F)(F)CNC(=O)c1ccccc1C(F)(F)F [Example 76],4.68
19,COc1cc(-c2ccc(OC(F)(F)F)cc2)ccc1C(F)(F)CNC(=O)c1ccccc1C(F)(F)F [Example 77],4.42
20,Cc1cc(-c2ccc(C(F)F)cc2)ccc1C(F)(F)CNC(=O)c1ccccc1C(F)(F)F [Example 80],4.06
21,O=C(NCC(F)(F)c1c(F)cc(-c2ccc(C(F)F)cc2)cc1F)c1ccccc1C(F)(F)F [Example 81],3.9
22,O=C(NCC(F)(F)c1c(F)cc(-c2cccc(C(F)F)c2)cc1F)c1ccccc1C(F)(F)F [Example 82],3.83
23,N#Cc1cc(-c2ccc(SC(F)(F)F)cc2)ccc1C(F)(F)CNC(=O)c1ccccc1C(F)(F)F [Example 83],4.5
24,CN1CCN(c2ccc(-c3ccc(C(F)(F)CNC(=O)c4ccccc4C(F)(F)F)c(Cl)c3)cc2)CC1 [Example 84],1.84
25,N#Cc1cc(-c2ccc(C(F)(F)F)cc2)ccc1C(F)(F)CNC(=O)c1ccccc1C(F)(F)F [Example 85],4.07
26,O=C(NCC(F)(F)c1c(F)cc(-c2ccc(C(F)(F)F)cc2)cc1F)c1ccccc1C(F)(F)F [Example 86],4.38

# Same assay, conditions: reversed phase HPLC columns, acidic range, 0.1% formic acid in water and acetonitrile as eluent, read-out: logP (HCOOH)[a]
row,Structure (SMILES),chromatographic logP
1,CS(=O)(=O)c1ccc(-c2ccc(C(F)(F)CNC(=O)c3ccccc3C(F)(F)F)c(Cl)c2)cc1 [Example 24],2.99
2,CC(=O)Nc1ccc(-c2ccc(C(F)(F)CNC(=O)c3ccccc3C(F)(F)F)c(Cl)c2)cc1 [Example 30],2.93
